# Source: patent publication US20240209011A1, “HETEROAROMATIC PHOSPHONIUM SALTS FOR TREATING CANCER” (FLORATEK PHARMA S.A., priority 2021, published 2024)
# Columns and labels:
# Assay type in all cases: cell-based
# PC-3 = assay: Cell viability assay (CellTiter-Blue/CellTiter-Glow); details: Homo sapiens; prostate carcinoma cell line PC-3; absolute IC50; 72 h
# Procedure: (§1) Antitumor activity of the compounds and doxorubicin as a positive control was assessed by using the CellTiter-Blue Cell Viability Assay (Promega, #G8082) or CellTiter-Glow® Luminescent Cell Viability assay (Promega #G7572) according to the manufacturer's instructions. The compounds were tested at 5 or 6 concentrations in half-log increments (highest concentration 30 μM or 100 μM) in duplicate or triplicate well conditions.
# (§2) Tumor cells were grown at 37° C. in a humidified atmosphere with 5% CO2 in RPMI 1640 or DMEM medium, supplemented with 10% (v/v) fetal calf serum and 50 μg/ml gentamicin for up to 20 passages, and were passaged once or twice weekly. Cells were harvested using TrypLE or PBS buffer containing 1 mM EDTA, and the percentage of viable cells is determined using a CASY Model TI cell counter (OMNI Life Science). Cells were harvested from exponential phase cultures, counted and plated in 96 well flat-bottom microtiter plates at a cell density depending on the cell line's growth rate (4,000-20,000 cells/well depending on the cell line's growth rate, up to 60,000 for hematological cancer cell lines) in RPMI 1640 or DMEM medium supplemented with 10% (v/v) fetal calf serum and 50 μg/ml gentamicin (140 μl/well). Cultures were incubated at 37° C. and 5% CO2 in a humidified atmosphere. After 24 h, 10 μl of test compounds or control medium were added, and left on the cells for another 72 h. Compounds were serially diluted in DMSO, transferred in cell culture medium, and added to the assay plates. The DMSO concentration was kept constant at <0.3% v/v across the assay plate. Viability of cells was quantified by the CellTiter-Blue® cell viability assay (Promega G8081) or CellTiter-Glow® Luminescent Cell Viability assay (Promega #G7572). Fluorescence (FU) was measured by using the EnSpire® multimode plate reader (Perkin Elmer) (excitation X=570 nm, emission λ=600 nm). Luminescence was measured with a microplate luminometer (Promega or PerkinElmer).
# (§3) Sigmoidal concentration-response curves were fitted to the data points (test-versus-control, T/C values) obtained for each tumor model using 4 parameter non-linear curve fit (Charles River DRS Datawarehouse Software) or with GraphPad prism 5.02 software. IC50 values are reported as absolute IC50 values, being the concentration of test compound at the intersection of the concentration-response curves with T/C=50% Cell lines tested are presented in Table 1.
# parental H69 cells = assay: as above; details: Homo sapiens, NCI-H69; SCLC parental H69 cells
# Procedure: as §1, §2, §3
# LoVo = assay: as above; details: Homo sapiens; colon carcinoma cell line LoVo; absolute IC50; 72 h
# Procedure: as §1, §2, §3
# 22Rv1 = assay: as above; details: Homo sapiens; prostate carcinoma cell line 22Rv1; absolute IC50; 72 h
# Procedure: as §1, §2, §3
# HCT-116 = assay: as above; details: Homo sapiens; colon carcinoma cell line HCT-116; absolute IC50; 72 h
# Procedure: as §1, §2, §3
# LNCaP = assay: as above; details: Homo sapiens; prostate carcinoma cell line LNCaP; absolute IC50; 72 h
# Procedure: as §1, §2, §3
# MDA-MB-468 = assay: as above; details: Homo sapiens; breast carcinoma cell line MDA-MB-468; absolute IC50; 72 h
# Procedure: as §1, §2, §3
# MCF-7 = assay: as above; details: Homo sapiens, MCF7; breast carcinoma cell line MCF-7; absolute IC50; 72 h
# Procedure: as §1, §2, §3
# HL-60 = assay: as above; details: Homo sapiens; leukaemia cell line HL-60; absolute IC50; 72 h
# Procedure: as §1, §2, §3
# leukaemia cell = assay: Activity against leukaemia cells; details: leukaemia cell growth; Tables 13A and 13B
# Procedure: as §1, §2, §3
# prostate cancer cell = assay: Activity against prostate cancer cells; details: prostate cancer cell growth; text summary of Table 21
# Procedure: as §1, §2, §3
# colon cancer cell = assay: Activity against colon cancer cells; details: colon cancer cell growth; summary of Tables 7A-7D
# Procedure: as §1, §2, §3
# breast cancer cell = assay: Activity against breast cancer cells; details: breast cancer cell growth; Tables 5A and B
# Procedure: as §1, §2, §3
structure (smiles),measurement,setting,value
"O=c1cc(-c2ccc(CCC[P+](c3ccccc3)(c3ccccc3)c3ccccc3)cc2)oc2c(O)c(O)ccc12 [SND176, (3-(4-(7,8-Dihydroxy-4-oxo-4H-chromen-2-yl)phenyl)propyl)triphenylphosphonium bromide]",IC50,PC-3,7.3 µM
same,IC50,parental H69 cells,7 µM
same,IC50,LoVo,8.6 µM
same,IC50,22Rv1,8.18 µM
same,IC50,HCT-116,8.68 µM
same,IC50,LNCaP,3.66 µM
same,IC50,MDA-MB-468,1.42 µM
same,IC50,MCF-7,18.3 µM
same,IC50,HL-60,1.43 µM
same,IC50,leukaemia cell,< 20 µM
same,IC50,prostate cancer cell,< 10 µM
same,IC50,colon cancer cell,< 20 µM
same,IC50,breast cancer cell,< 20 µM
